{
  "source": "paper PMC8482806",
  "about": "“A Novel Blood-Brain Barrier-Permeable Chemotherapeutic Agent for the Treatment of Glioblastoma” (Cureus, 2021)",
  "key": {"hLAT2": {"target": "T1, hLAT2 (Homo sapiens, UniProt Q9UHI5)", "T1 construct": "host or cells: LLC-PK1 (tetracycline-inducible, Invitrogen Gateway pT-REx System)", "T1 sequence (Q9UHI5 1-535)": "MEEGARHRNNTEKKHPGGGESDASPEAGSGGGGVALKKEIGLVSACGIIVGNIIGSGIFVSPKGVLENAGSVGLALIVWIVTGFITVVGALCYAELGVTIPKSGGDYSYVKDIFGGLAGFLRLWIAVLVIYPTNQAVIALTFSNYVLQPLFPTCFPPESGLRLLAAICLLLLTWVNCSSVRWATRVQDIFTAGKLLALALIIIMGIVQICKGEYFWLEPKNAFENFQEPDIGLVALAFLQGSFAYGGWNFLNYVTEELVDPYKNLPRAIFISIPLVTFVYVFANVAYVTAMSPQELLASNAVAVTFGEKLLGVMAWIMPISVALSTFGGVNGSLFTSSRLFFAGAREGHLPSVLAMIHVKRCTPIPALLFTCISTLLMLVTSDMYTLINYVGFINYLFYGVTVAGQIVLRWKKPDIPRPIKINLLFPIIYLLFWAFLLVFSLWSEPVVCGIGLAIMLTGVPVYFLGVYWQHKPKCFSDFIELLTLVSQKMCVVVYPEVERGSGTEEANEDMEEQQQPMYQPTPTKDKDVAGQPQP", "T1 sequence (P08195 1-529 partner)": "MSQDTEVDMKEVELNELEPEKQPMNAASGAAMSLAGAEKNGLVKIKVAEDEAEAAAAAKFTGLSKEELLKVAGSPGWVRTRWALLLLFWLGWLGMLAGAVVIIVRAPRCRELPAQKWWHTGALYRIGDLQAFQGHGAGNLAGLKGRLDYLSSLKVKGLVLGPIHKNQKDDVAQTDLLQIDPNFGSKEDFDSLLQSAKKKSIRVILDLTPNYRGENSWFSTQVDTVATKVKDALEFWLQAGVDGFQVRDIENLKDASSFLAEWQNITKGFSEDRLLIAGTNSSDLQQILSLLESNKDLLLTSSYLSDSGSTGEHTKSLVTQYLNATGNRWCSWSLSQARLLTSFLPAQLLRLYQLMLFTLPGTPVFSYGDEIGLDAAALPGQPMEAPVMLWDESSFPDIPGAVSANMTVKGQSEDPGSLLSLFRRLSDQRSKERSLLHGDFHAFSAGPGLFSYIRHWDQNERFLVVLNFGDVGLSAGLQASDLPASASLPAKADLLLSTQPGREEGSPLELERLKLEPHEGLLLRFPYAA", "test": "Substrate transport inhibition, [3H]-leucine uptake in LLC-PK1 cells expressing hLAT2", "format": "cell-based", "experimental": "(§1) Substrate transport inhibition studies were conducted with LLC-PK1 cells inducibly expressing either hLAT1 or hLAT2. Cells were plated in growth media with 1 μg/mL doxycycline at 30,000 cells/well in 96-well plates. Sixteen hours after plating, cells were treated with butyrate at a final concentration of 5 mM. The following day, cells were washed with PBS and incubated in the presence or absence of various concentrations of QBS10072S with 30,000 cpm/well of either [3H]-gabapentin (LAT1) or [3H]-leucine (LAT2) in PBS for 15 minutes at room temperature. The non-specific cell-bound activity was determined by the addition of 5 mM unlabeled gabapentin (LAT1) or leucine (LAT2). Unincorporated radioactivity was removed, and cells were washed three times with ice-cold PBS. Cells were lysed by adding scintillation fluid to each well, and cell-associated radioactivity was determined via scintillation counting using a multichannel 96-well plate reader (MicroBeta Trilux, Perkin Elmer, Waltham, MA). Data were expressed as the percent of specific radioactivity uptake in wells with no compound added. LC50s were determined by non-linear curve-fitting using GraphPad Prism (San Diego, CA)."}, "[1]": {"test": "Cytotoxicity in normal human astrocytes (CellTiter-Glo)", "format": "cell-based", "details": "normal human astrocytes (NHA), read-out: LC50", "method": "In vitro activity of QBS10072S was assessed using a modified clonogenic cell viability assay in 96-well clear-bottom plates. […] For GBM cell lines, 2000 cells/well were plated. On day 2 (GBM) or day 3 (LLC-PK1) after original plating, cells were washed twice with PBS and incubated with 50 μL of various concentrations of QBS10072S in PBS in at least quadruplicate. After 30 minutes at 37°C, 200 μL of growth medium was added to each well. Clonal populations were allowed to grow until the control wells (mock treatment) were near confluence (7 to 10 days). At this point, 170 μL media were removed and 60 μL CellTiter-Glo® (Promega, Madison, WI) were added to each well. Plates were placed on an orbital shaker for three minutes to lyse the cells and then incubated for an additional 10 minutes at RT to stabilize the luminescent signal. Luminescence was recorded using an EnSpire® Multimode Plate Reader (Perkin Elmer). Background (luminescence from wells incubated with 100 μM melphalan or lomustine) was subtracted and data were normalized to the control. EC50s were determined by non-linear regression using GraphPad Prism.\nCells were incubated with a titration of QBS10072S or melphalan and cell viability was measured by CellTiter-Glo. LC50 values for each compound were determined."}, "hLAT1": {"target": "T2, hLAT1 (Homo sapiens, UniProt Q01650)", "T2 construct": "host or cells: LLC-PK1 (tetracycline-inducible, Invitrogen Gateway pT-REx System)", "T2 sequence (Q01650 whole entry, one chain of several)": "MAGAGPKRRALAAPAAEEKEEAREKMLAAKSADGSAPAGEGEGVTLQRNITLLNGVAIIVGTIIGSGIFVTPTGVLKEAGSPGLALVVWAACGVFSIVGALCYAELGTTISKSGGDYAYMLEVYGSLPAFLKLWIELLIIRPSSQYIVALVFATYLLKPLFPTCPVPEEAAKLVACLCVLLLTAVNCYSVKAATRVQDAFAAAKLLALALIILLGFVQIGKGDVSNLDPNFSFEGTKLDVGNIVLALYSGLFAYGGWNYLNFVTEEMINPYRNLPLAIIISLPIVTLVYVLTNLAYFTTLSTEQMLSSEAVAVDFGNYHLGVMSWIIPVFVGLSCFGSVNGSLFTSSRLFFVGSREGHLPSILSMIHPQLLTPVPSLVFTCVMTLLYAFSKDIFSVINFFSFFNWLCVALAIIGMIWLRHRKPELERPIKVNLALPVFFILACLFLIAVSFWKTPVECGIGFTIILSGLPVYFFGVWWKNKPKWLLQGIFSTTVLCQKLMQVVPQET", "test": "Substrate transport inhibition, [3H]-gabapentin uptake in LLC-PK1 cells expressing hLAT1", "format": "cell-based", "experimental": "as §1"}, "U87 cells": {"tested_on": "U87 cells", "test": "WST1 cell viability assay, U87", "format": "cell-based", "details": "Homo sapiens, U-87 MG; U87; QBS10072S 1 hour in PBS, TMZ 2 days, read day 7; read-out: LC50 (μM ± SD)", "experimental": "(§2) In vitro activities of QBS10072S and temozolomide (TMZ) in U87 and U87-MGMT cells were assessed using the WST1 cell viability assay in 96-well plates in which 500/well of cells were plated in sextuplets for each condition. To avoid cell loss, the following washing and medium removing procedures were all done using a P200 pipet without vacuum aspiration. For QBS10072S treatment, cells were washed with PBS the next day and incubated with 50 μL of various concentrations of QBS10072S in PBS for 1 hour at 37°C. After incubation, 150 μL of growth medium was added to each well. The medium was subsequently changed every two days until day 7. For TMZ treatment, cells were treated with 100 μL of various concentrations of TMZ in a growth medium for 2 days. After incubation, cells were put back in a normal growth medium and continued culturing for five days. In the end, 10 μL of WST1 reagent was added to each well and incubated at 37°C for 4h before subjecting to plate reading at 450 nm and 690nm using an EnSpire multimode plate reader (PerkinElmer). Background (OD690nm) was subtracted and data were normalized to the control. LC50s were determined by non-linear regression using GraphPad Prism (GraphPad Software Inc., San Diego, California)"}, "U87-MGMT cells": {"tested_on": "U87-MGMT cells", "test": "WST1 cell viability assay, U87-MGMT", "format": "cell-based", "details": "Homo sapiens; U87-MGMT; QBS10072S 1 hour in PBS, TMZ 2 days, read day 7; read-out: LC50 (μM ± SD)", "experimental": "as §2"}, "[2]": {"tested_on": "U251 intracerebral human GBM xenograft", "test": "U251 intracerebral human GBM xenograft in athymic mice (BLI, survival)", "format": "in vivo, mouse", "details": "temozolomide 4 mg/kg oral gavage daily for 5 days plus RT 1.5 Gy daily for 5 days; vehicle 35", "experimental": "Five-week-old female athymic mice (nu/nu, homozygous: Simonsen Laboratories, Gilroy, CA), housed under aseptic conditions, received intracranial tumor cell injection as previously described and as approved by the University of California San Francisco Institutional Animal Care and Use Committee, Protocol #: AN111064-03. Briefly, mice were anesthetized by intraperitoneal injection of ketamine (100 mg/kg) and xylazine (10 mg/kg) and injected with 3 μL of tumor cell suspension (300,000 cells total) into the right caudate-putamen. Coordinates: 3 mm to the right from bregma, on top of the coronal suture, and 3.5 mm depth. Injection rate: ~30 second/uL. For treatment studies, eight mice were used for each group for LN229 studies and nine mice per group for U251 studies. Treatments began when tumors entered the log-phase of growth as measured by luminescence, for the LN229 experiment on Day 21 and for U251 experiments on Day 14.\nDosing levels and frequency are described in the figure legends.\nFor bioluminescence imaging (BLI), mice were anesthetized as above, then administered 150 mg/kg of luciferin (D-luciferin potassium salt, Gold Biotechnology, St. Louis, MO) via intraperitoneal injection. Ten minutes after luciferin injection, mice were examined for tumor bioluminescence with an IVIS Lumina imaging station and Living Image software (Caliper Life Sciences, Alameda, CA), and regions of interest were recorded as photons per second per steradian per square cm.\nMice were anesthetized via inhalation of 2.5% isoflurane with 1 L of oxygen per minute for five minutes prior to being positioned on an irradiation platform located 16.3 cm from a cesium-137 source (JL Shepherd & Associates, San Fernando, CA). Eyes, respiratory tracts, and bodies were protected with lead shielding. Mice received whole-brain irradiation at a dose rate of 247 cGy/min until 1.5 Gy radiation had been administered. After irradiation, animals were monitored until recovery. Mice were irradiated once daily for five consecutive days. All mice received the first radiation dose when tumors were in a log-phase growth (Day 14) as determined by BLI.\nTumor-bearing mice were treated with temozolomide (TMZ) 4 mg/kg via oral gavage, starting on day 14 post U251 cell injection once daily for five days - concurrent therapy with RT. TMZ was obtained from the UCSF hospital pharmacy and formulated with the Ora-Plus suspending vehicle (Perrigo, Dublin, Ireland) with a working concentration of 1 mg/mL."}},
  "data": [
    {"smiles": "N[C@@H](Cc1ccc(N(CCCl)CCCl)cc1)C(=O)O", "note": "[Melphalan, melphalan, reference compound]", "values": [
      {"measurement": "IC50", "setting": "hLAT2", "value": 390, "unit": "µM"},
      {"measurement": "CC50 at 30 min", "setting": "[1]", "value": 0.86, "unit": "µM"},
      {"measurement": "IC50", "setting": "hLAT1", "value": 170, "unit": "µM"}
    ]},
    {"smiles": "Cn1nnc2c(C(N)=O)ncn2c1=O", "note": "[TMZ, temozolomide, reference compound]", "values": [
      {"measurement": "CC50", "setting": "U87 cells", "value": "82.3 ± 10.5", "unit": "µM"},
      {"measurement": "CC50", "setting": "U87-MGMT cells", "value": "> 200", "unit": "µM"},
      {"measurement": "median survival time", "setting": "[2]", "value": 48, "unit": "days"}
    ]}
  ]
}
